Activity calls are given as the source filed them. The calls are words filed in the database; no cut-off is given here.
What follows are compounds tested on Mus musculus (assay: Analgesic activity in Kunming mouse model of acetic-acid-induced writhing assessed as inhibition of writhing numbers at 5 mg/kg measured for 30 mins relative to control).
Assay type: functional
For C=C1[C@H]2C[C@H](O)C(C)(C)[C@@]2(O)[C@H](O)C[C@@]23C[C@@H](CC[C@@H]12)[C@](C)(O)C3, the Activity was “Active”.
With C=C1[C@@H]2CC[C@@H]3C[C@@]2(CC[C@@]2(O)[C@H]1C[C@H](O)C2(C)C)C[C@]3(O)CO the Activity was “Active”.
C=C1[C@H]2C[C@H](O)C(C)(C)[C@]2(O)CC[C@@]23C[C@@H](CC[C@@H]12)[C@](C)(O)C3 was tested, and the Activity was “Active”.
In the case of C=C1[C@H]2C[C@@H](O)C(C)(C)[C@]2(O)CC[C@@]23C[C@@H](CC[C@@H]12)[C@](C)(O)C3, the Activity is reported as 64.1%.
With C=C1[C@@H]2CC[C@@H]3C[C@@]2(C[C@@H](O)[C@@]2(O)[C@H]1C[C@H](O)C2(C)C)C[C@@]3(C)O the Activity was “Active”.
For CC1=C2CC[C@]3(O)C[C@@]2(C[C@@H](O)[C@@]2(O)[C@H]1[C@@H](O)[C@H](O)C2(C)C)C[C@@]3(C)O, the Activity was “Active”.
CC1(C)C2=CC[C@@]34C[C@@H](CC[C@H]3[C@@](C)(O)[C@H]2C[C@@H]1O)[C@](C)(O)C4 was tested, and the Activity was “Active”.
C=C1[C@@H]2[C@@H](O)[C@H](O)C(C)(C)[C@@]2(O)[C@H](O)C[C@@]23C[C@@](O)(CC[C@@H]12)[C@](C)(O)C3 was tested, and the Activity was “Active”.
C=C1[C@H]2C[C@H](O)[C@@](C)(CO)[C@]2(O)CC[C@@]23C[C@@H](CC[C@@H]12)[C@](C)(O)C3 showed an Activity of 58.8%.
C=C1[C@H]2C[C@H](O)C(C)(C)[C@@]2(O)[C@H](O)C[C@@]23C[C@@](O)(CC[C@@H]12)[C@](C)(O)C3 was tested, and the Activity was “Active”.
In the case of C=C1[C@@H]2CC[C@]3(O)C[C@@]2(C[C@@H](O)[C@@]2(O)[C@H]1C[C@H](O)C2(C)C)C[C@@]3(C)O, the Activity is reported as “Active”.
For C=C1[C@@H]2CC[C@@H]3[C@@H](O)[C@@]2(C[C@@H](O)[C@@]2(O)[C@H]1C[C@H](O)C2(C)C)C[C@@]3(C)O, the Activity was “Active”.
CC1=C2CC[C@]3(O)C[C@@]2(C[C@@H](O)[C@@]2(O)[C@H]1C[C@H](O)C2(C)C)C[C@@]3(C)O gave an Activity of 52.3%.
C=C1[C@@H]2CC[C@]3(O)C[C@@]2(C[C@@H](O)[C@@]2(O)[C@@H]1[C@H](O)[C@H](O)C2(C)C)C[C@@]3(C)O was tested, and the Activity was “Active”.
In the case of CO[C@H]1O[C@]23[C@H](O)C[C@@]45C[C@@](O)(CC[C@H]4[C@H]1[C@@H]2C[C@H](O)C3(C)C)[C@](C)(O)C5, the Activity is reported as “Active”.
For C=C1[C@H]2C[C@H](O)C(C)(C)[C@@]2(O)[C@H](O)C[C@]23C=C(C)[C@H](CC[C@@H]12)C3, the Activity was “Active”.
With C=C1[C@@H]2CC[C@@H]3C[C@@]2(C[C@@H](O)[C@@]2(O)[C@H]1C[C@@H](O)C2(C)C)C[C@@]3(C)O the Activity was “Active”.
CC1=C2C[C@H](O)C(C)(C)[C@@H]2C(=O)C[C@@]23C[C@@H](CC=C12)[C@](C)(O)C3 was tested, and the Activity was “Active”.
With C=C1[C@@H]2CC[C@@H]3C[C@@]2(C[C@@H](O)[C@@]2(O)[C@H]1C[C@H](O)C2(C)C)C[C@]3(O)CO the Activity was 53.7%.
C=C1[C@@H]2CC[C@@H]3C[C@@]2(CC[C@@]2(O)[C@H]1C[C@H](O)C2(C)C)C[C@@]3(C)O was tested, and the Activity was “Active”.

The compounds below were run on Mus musculus (assay: Analgesic activity in Kunming mouse model of acetic-acid-induced writhing assessed as inhibition of writhing numbers at 1 mg/kg measured for 30 mins relative to control).
Assay type: functional, organism-based
C=C1C2=C(C=C[C@@]34C[C@@H](CC[C@@H]13)[C@](C)(O)C4)C(C)(C)[C@@H](O)C2 was tested, and the Activity was “Active”.
With C=C1[C@@H]2CC[C@H]3C(C)=C[C@]2(C[C@@H](O)[C@@]2(O)[C@H]1C[C@H](O)C2(C)C)[C@@H]3OC(C)=O the Activity was “Active”.

Each compound was assayed on Mus musculus (assay: Analgesic activity in Kunming mouse model of acetic-acid-induced writhing assessed as inhibition of writhing numbers at 0.2 mg/kg measured for 30 mins relative to control).
Assay type: functional, organism-based
With C=C1[C@@H]2CC[C@@H]3[C@@H](OC(C)=O)[C@@]2(C[C@@H](O)[C@@]2(O)[C@H]1C[C@H](O)C2(C)C)C[C@@]3(C)O the Activity was “Active”.
With CC(=O)O[C@@H]1[C@H]2CC[C@H]3[C@@](C)(O)[C@@H]4C[C@H](O)C(C)(C)[C@@]4(O)[C@H](O)C[C@@]13C[C@@]2(C)O the Activity was “Active”.

The compounds below were run on Mus musculus (assay: Analgesic activity in Kunming mouse model of acetic-acid-induced writhing assessed as inhibition of writhing numbers at 0.04 mg/kg measured for 30 mins relative to control).
Assay type: functional, organism-based
CN1CC[C@]23c4c5ccc(O)c4O[C@H]2[C@@H](O)C=C[C@H]3[C@H]1C5 was tested, and the Activity was “Active”.

What follows are compounds tested on Mus musculus (assay: Analgesic activity in Kunming mouse model of acetic-acid-induced writhing assessed as inhibition of writhing numbers at 0.04 to 0.2 mg/kg measured for 30 mins relative to control).
Assay type: functional, organism-based
In the case of C=C1[C@@H]2CC[C@@H]3[C@@H](OC(C)=O)[C@@]2(C[C@@H](O)[C@@]2(O)[C@H]1C[C@H](O)C2(C)C)C[C@@]3(C)O, the Activity is reported as “Active”.
With CC(=O)O[C@@H]1[C@H]2CC[C@H]3[C@@](C)(O)[C@@H]4C[C@H](O)C(C)(C)[C@@]4(O)[C@H](O)C[C@@]13C[C@@]2(C)O the Activity was “Active”.

Reference: ChEMBL document CHEMBL4339245, “Grayanane Diterpenoids from the Leaves of Rhododendron auriculatum and Their Analgesic Activities” (2019)
